In ChEMBL document CHEMBL1201862, “PubChem BioAssay data set” (2004):
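The compound was tested at five concentrations on cells cultured in 96-well plates, with a 48-hour exposure period. Here, GI50 denotes the concentration required for 50% inhibition of growth.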 The source made the active and inactive calls. No stated cut-off is given here; in the data, active = GI50 up to about 1.1 µM and inactive = higher.

How the values were obtained:
Assay in all cases: inhibition of tumour cell growth, NCI panel, 48 h
786-0 = tested on: 786-0
A498 = tested on: A498
A549 = tested on: A549
ACHN = tested on: ACHN
BT-549 = tested on: BT-549
CAKI-1 = tested on: CAKI-1
CCRF-CEM = tested on: CCRF-CEM
COLO 205 = tested on: COLO 205
DU-145 = tested on: DU-145
EKVX = tested on: EKVX
HCC 2998 = tested on: HCC 2998
HCT-116 = tested on: HCT-116
HCT-15 = tested on: HCT-15
HL-60 = tested on: HL-60
HOP-62 = tested on: HOP-62
HOP-92 = tested on: HOP-92
HT-29 = tested on: HT-29
Hs-578T = tested on: Hs-578T
IGROV-1 = tested on: IGROV-1
K562 = tested on: K562
KM12 = tested on: KM12
LOX IMVI = tested on: LOX IMVI
M14 = tested on: M14
MCF7 = tested on: MCF7
MDA-MB-231 = tested on: MDA-MB-231
MDA-MB-435 = tested on: MDA-MB-435
MDA-N = tested on: MDA-N
MOLT-4 = tested on: MOLT-4
Malme-3M = tested on: Malme-3M
NCI-H23 = tested on: NCI-H23
NCI-H460 = tested on: NCI-H460
NCI-H522 = tested on: NCI-H522
NCI/ADR-RES = tested on: NCI/ADR-RES
OVCAR-3 = tested on: OVCAR-3
OVCAR-4 = tested on: OVCAR-4
OVCAR-5 = tested on: OVCAR-5
OVCAR-8 = tested on: OVCAR-8
PC-3 = tested on: PC-3
RPMI-8226 = tested on: RPMI-8226
RXF 393 = tested on: RXF 393
SF-268 = tested on: SF-268
SF-295 = tested on: SF-295
SF-539 = tested on: SF-539
SK-MEL-28 = tested on: SK-MEL-28
SK-MEL-2 = tested on: SK-MEL-2
SK-MEL-5 = tested on: SK-MEL-5
SK-OV-3 = tested on: SK-OV-3
SN12C = tested on: SN12C
SNB-19 = tested on: SNB-19
SNB-75 = tested on: SNB-75
SR = tested on: SR
SW-620 = tested on: SW-620
T47D = tested on: T47D
TK-10 = tested on: TK-10
U-251 = tested on: U-251
UACC-62 = tested on: UACC-62
UO-31 = tested on: UO-31

## O=C1C(Nc2ccccc2)=CC2=NCCc3n[nH]c1c32
786-0
  GI50: 38.5 µM (inactive)
A498
  GI50: 61.4 µM (inactive)
A549
  GI50: 84.9 µM (inactive)
ACHN
  GI50: 55.6 µM (inactive)
BT-549
  GI50: 40.8 µM (inactive)
CAKI-1
  GI50: 72.6 µM (inactive)
CCRF-CEM
  GI50: 22.3 µM (inactive)
COLO 205
  GI50: 33.1 µM (inactive)
DU-145
  GI50: 64 µM (inactive)
EKVX
  GI50: 41.1 µM (inactive)
HCC 2998
  GI50: 34.8 µM (inactive)
HCT-116
  GI50: 18 µM (inactive)
HCT-15
  GI50: 19.8 µM
HL-60
  GI50: 21.1 µM (inactive)
HOP-62
  GI50: 91.2 µM (inactive)
HOP-92
  GI50: 45.8 µM (inactive)
HT-29
  GI50: 37 µM (inactive)
Hs-578T
  GI50: 42.2 µM (inactive)
IGROV-1
  GI50: 37.8 µM (inactive)
K562
  GI50: 38.5 µM (inactive)
KM12
  GI50: 20.4 µM (inactive)
LOX IMVI
  GI50: 13.9 µM (inactive)
M14
  GI50: 46.8 µM (inactive)
MCF7
  GI50: 26.7 µM (inactive)
MDA-MB-231
  GI50: 34.8 µM (inactive)
MDA-MB-435
  GI50: 17.2 µM (inactive)
MDA-N
  GI50: 16.3 µM (inactive)
MOLT-4
  GI50: 30.1 µM (inactive)
Malme-3M
  GI50: 14.4 µM (inactive)
NCI-H23
  GI50: 33.9 µM (inactive)
NCI-H460
  GI50: 35.9 µM (inactive)
NCI-H522
  GI50: 32.5 µM (inactive)
NCI/ADR-RES
  GI50: 28.6 µM (inactive)
OVCAR-3
  GI50: 25 µM (inactive)
OVCAR-4
  GI50: 27.2 µM (inactive)
OVCAR-5
  GI50: > 100 µM (inactive)
OVCAR-8
  GI50: 21 µM (inactive)
PC-3
  GI50: 33.1 µM (inactive)
RPMI-8226
  GI50: 26.4 µM (inactive)
RXF 393
  GI50: > 100 µM (inactive)
SF-268
  GI50: 65.2 µM (inactive)
SF-295
  GI50: 38.6 µM (inactive)
SF-539
  GI50: 35.7 µM (inactive)
SK-MEL-28
  GI50: 68.1 µM (inactive)
SK-MEL-2
  GI50: 61.7 µM (inactive)
SK-MEL-5
  GI50: 18.5 µM (inactive)
SK-OV-3
  GI50: > 100 µM (inactive)
SN12C
  GI50: 34.8 µM (inactive)
SNB-19
  GI50: 63.8 µM (inactive)
SNB-75
  GI50: > 100 µM (inactive)
SR
  GI50: 25.2 µM (inactive)
SW-620
  GI50: 34.4 µM (inactive)
T47D
  GI50: 34.4 µM (inactive)
TK-10
  GI50: > 100 µM (inactive)
U-251
  GI50: 37.4 µM (inactive)
UACC-62
  GI50: 21.5 µM (inactive)
UO-31
  GI50: 55.8 µM (inactive)
